Tests used:
[1] = phase I study, plasma levels on increasing the dose; assay type: in vivo, human
Excerpt: Generally increasing the dose in order to compensate for the reduced bioavailability in patients is frequently undesirable because of the waste of active substance and the greater burden on the patient and the associated risk of side effects, for example, or even totally impossible, on the grounds of drug safety.

[2] = solubility of the active substance; assay type: physicochemical
Description: The solubility of a compound may be determined by dispersing an excess of the compound at ambient temperature in the medium in question and shaking it vigorously for a defined length of time (approx. 1 to 24 h) until equilibrium is achieved. After filtration the pH is determined in the clear filtrate and the concentration of the dissolved substance is determined by spectral photometry or some other suitable analytical process.

plasma levels achieved with 200 mg ([1]; 200 mg compared with 600 mg) | higher plasma levels on increasing the dose ([1]; dose increased from 100 to 600 mg) | solubility in an acidic medium [2] | SMILES
equal to those obtained with 600 mg | about 50% | – | O=C(O)CCC/C=C(\c1ccc(CCNS(=O)(=O)c2ccc(Cl)cc2)cc1)c1cccnc1 [DT-TX 30]
– | – | readily soluble | CCCc1nc2c(C)cc(-c3nc4ccccc4n3C)cc2n1Cc1ccc(-c2ccccc2C(=O)O)cc1 [telmisartan]

From patent publication US20050053669A1, “Administration form for the oral application of poorly soluble acidic and amphorteric drugs” (Boehringer Ingelheim International GmbH, priority 2003, published 2005)
